Measurements published in PubChem BioAssay (NCI).
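Grown in 96-well plates, cells were treated for 48 hours with each compound at five concentrations. Insufficient inhibition: endpoint recorded as highest concentration tested. GI50: concentration for 50% inhibition of growth. TGI denotes the concentration required for complete inhibition of growth.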

What was measured:
Assay in all cases: growth of human tumour cells (NCI), 48 h
SNB-75 CNS = system: SNB-75 CNS
EKVX NSCLC = system: EKVX NSCLC
SR leukemia = system: SR leukemia
HCT-116 colon = system: HCT-116 colon
MOLT-4 leukemia = system: MOLT-4 leukemia
MALME-3M melanoma = system: MALME-3M melanoma
SK-MEL-28 melanoma = system: SK-MEL-28 melanoma
HOP-62 NSCLC = system: HOP-62 NSCLC
TK-10 renal = system: TK-10 renal
KM12 colon = system: KM12 colon

| SMILES | GI50 (SNB-75 CNS) [µM] | TGI (SNB-75 CNS) [µM] | GI50 (EKVX NSCLC) [µM] | TGI (EKVX NSCLC) [µM] | GI50 (SR leukemia) [µM] | TGI (SR leukemia) [µM] | GI50 (HCT-116 colon) [µM] | TGI (HCT-116 colon) [µM] | GI50 (MOLT-4 leukemia) [µM] | TGI (MOLT-4 leukemia) [µM] | GI50 (MALME-3M melanoma) [µM] | TGI (MALME-3M melanoma) [µM] | GI50 (SK-MEL-28 melanoma) [µM] | TGI (SK-MEL-28 melanoma) [µM] | GI50 (HOP-62 NSCLC) [µM] | TGI (HOP-62 NSCLC) [µM] | GI50 (TK-10 renal) [µM] | TGI (TK-10 renal) [µM] | GI50 (KM12 colon) [µM] | TGI (KM12 colon) [µM] |
| --- | --- | --- | --- | --- | --- | --- | --- | --- | --- | --- | --- | --- | --- | --- | --- | --- | --- | --- | --- | --- |
| CCCCCCCCCCC[C@@H](C[C@H]1OC(=O)[C@H]1CCCCCC)OC(=O)[C@@H](CC(C)C)NC=O | 2.55 | 12.6 | 27.4 | > 100 | 3.52 | 42.9 | 3.14 | 19.3 | 0.704 | > 100 | 15.9 | 41.7 | 19.8 | > 100 | 4.14 | 29.5 | 32.8 | > 100 | 3.92 | 34.6 |
| COc1ccc(/C=N\NC(=O)c2ccc3nc(-c4ccc(Cl)cc4)[nH]c3c2)cc1 | 1.53 | 4.58 | 2.11 | 5.84 | 2.87 | 15.4 | 2.14 | 5.12 | 4.53 | 30.4 | 1.67 | 3.63 | 1.79 | 3.37 | 1.88 | 6.37 | 2.95 | 6.59 | 3.03 | 9.58 |
| O=c1ccn(C2(CO)C=C(CO)C(O)C2O)c(=O)[nH]1 (configuration not stated) | – | > 25.7 | – | > 25.7 | – | > 25.7 | – | > 25.7 | – | > 25.7 | – | > 25.7 | – | > 25.7 | – | > 25.7 | – | > 25.7 | – | > 25.7 |
| COc1cnc2c(c1)C(=O)c1c-2n(CCCNCCN2CCOCC2)c(=O)c2cc([N+](=O)[O-])ccc12 | 0.265 | 10.7 | 0.446 | 3.5 | 0.0151 | 1.02 | – | – | 0.0335 | 0.269 | 0.34 | 2.86 | 1.13 | 14.3 | 0.15 | 1.08 | 0.73 | 3.17 | 0.399 | 3.57 |
| O=c1c2c(=NCCN3CCCC3)cc3c(=O)n(CCCN4CCOCC4)c(=O)c4ccc(c(O)n1CCCN1CCOCC1)c2c4-3 | 0.234 | 1.46 | 0.153 | 0.427 | < 0.0201 | 5.37 | < 0.0174 | 1.09 | < 0.0216 | 5.71 | 0.346 | 1.22 | 0.454 | 1.74 | 0.0577 | 0.832 | 0.195 | 1.62 | 0.131 | 1.22 |
| COc1ccc(/C=C\c2cc(OC)c(OC)c(OC)c2)cc1OCC(=O)Nc1nc2ccccc2s1 | 0.109 | > 100 | 3.65 | > 100 | 0.0363 | > 100 | 0.0439 | > 100 | 0.366 | > 100 | 0.338 | > 85.3 | – | – | 0.298 | > 100 | – | – | 0.0646 | > 100 |
| O=C1/C(=C/c2ccc(Cl)cc2)CN(C(=O)CCN2CCC(=NO)CC2)C/C1=C\c1ccc(Cl)cc1 | 1.31 | 2.61 | 1.62 | 3.45 | 0.114 | – | 0.245 | 0.654 | 0.397 | – | 1.5 | 3.12 | 1.57 | 2.96 | 0.894 | 2.41 | 1.46 | 2.93 | 0.388 | 0.935 |
| Nc1nccc2c1ccn2-c1cccc(NC(=O)c2ccc(N3CCOCC3)c(C(F)(F)F)c2)c1 | 0.307 | 2.25 | 1.99 | > 50 | 0.205 | > 11.3 | 0.677 | 8.66 | 1.7 | > 22.8 | 0.634 | 16.7 | 1.06 | > 47.5 | 1.27 | > 25.8 | 1.56 | 17.3 | 0.313 | 2.73 |
| COc1cc(OC)c(F)c(COc2cnc(Nc3cnn(CCO)c3)nc2)c1F | 0.203 | 2.32 | 1.94 | > 100 | 0.274 | – | 0.386 | > 100 | 0.668 | > 100 | 0.923 | 7.66 | 1.85 | > 100 | 0.423 | 4.58 | 1.01 | > 27.9 | 0.431 | 7.23 |
| CCCCCCCCNC(C)C(O)c1ccc(SC(C)C)cc1 (configuration not stated) | 1.72 | 3.26 | 1.44 | 2.98 | 1.99 | 5.71 | 1.59 | 3.11 | 2.48 | 5.27 | 1.98 | 3.81 | 1.83 | 3.27 | 1.53 | 2.87 | 1.7 | 3.13 | 1.76 | 3.18 |
| CC[C@H](C)[C@H](NC(=O)NC(C)(C)C)C(=O)N(C)[C@H](C[C@@H](OC(C)=O)c1nc(C(=O)N[C@@H](Cc2ccccc2)C[C@H](C)C(=O)OC)cs1)C(C)C | 0.293 | > 25 | 1.24 | > 25 | 0.141 | > 11.4 | 0.417 | > 25 | 0.853 | > 25 | > 5.51 | > 25 | 2.97 | > 25 | 0.846 | > 25 | 0.963 | > 25 | 0.682 | > 25 |
| COc1cc(-c2nc(-c3ccc(-c4nc5ccc(F)cc5[nH]4)cc3)no2)cc(OC)c1OC | 7.74 | 62.4 | 3.45 | 27.4 | 2.98 | > 100 | – | – | 1.99 | 5.44 | 2.32 | 6.52 | 3.78 | 16 | 3.21 | 9.15 | 8.27 | 34.1 | 3.08 | 8.98 |
| Cc1cccc(C(C)C)c1NC(=O)CCl | – | > 100 | – | 53.2 | – | > 100 | – | > 100 | – | > 100 | – | > 100 | – | > 100 | – | 98.8 | – | – | – | > 100 |
| C=C1CCC2C(C)(CO)C(O)CCC2(C)C1C/C=C1/CCOC1=O (configuration not stated) | – | > 100 | – | > 100 | – | > 100 | – | > 100 | – | > 100 | – | > 100 | – | – | – | > 100 | – | > 100 | – | > 100 |
